Read-outs that look alike come from different tables or passages of the source.
Experiments:
[1] = target: T1, Cloned Human Serotonin Receptor, Subtype 7 (h5HT7) (Homo sapiens, UniProt P34969); assay: Radioligand binding, [125I]LSD, h5HT7 expressed in CHO cells
T1 construct: purchased PerkinElmer 6120512; host or cells: CHO cells
Experimental: Radioligand binding assays were performed using the Cloned Human Serotonin Receptor, Subtype 7 (h5HT7), expressed in CHO cells, coated on Flashplate (Basic FlashPlate Cat.: SMP200) from PerkinElmer (Cat.: 6120512). The protocol assay was essentially the recommended protocol in the Technical Data Sheet by PerkinEmer Life and Analytical Sciences. The Mass membrane protein/well was typically […] and the Receptor/well was about 9-10 fmoles. The Flashplate were let equilibrate at room temperature for one hour before the addition of the components of the assay mixture. The binding buffer was: 50 mM Tris-HCl, pH 7.4, containing 10 mM MgCl2, 0.5 mM EDTA and 0.5% BSA. The radioligand was [^125I]LSD at a final concentration of 0.82 nM. Nonspecific binding was determined with 50 μM of Clozapine. The assay volume was 25 μl. TopSeal-A were applied onto Flashplate microplates and they were incubated at room temperature for 240 minutes in darkness. The radioactivity were quantified by liquid scintillation spectrophotometry (Wallac 1450 Microbeta Trilux) with a count delay of 4 minutes prior to counting and a counting time of 30 seconds per well. Competition binding data were analyzed by using the LIGAND program (Munson and Rodbard, LIGAND: A versatile, computerized approach for characterization of ligand-binding systems. Anal. Biochem. 107: 220-239, 1980) and assays were performed in triplicate determinations for each point.

5HT7 receptor = 5HT7 receptor (Homo sapiens, UniProt P34969); assay: Functionality assay on the 5HT7 receptor; type: biochemical
Excerpt: Functionality assay on the 5HT7 receptor were done according to those known in the state of the art.

5-HT1 = 5-HT1 IC50; type: binding
[2] = [125I]LSD 0.82 nM, h5HT7 in CHO cells, read-out: 5-HT7 IC50

T1 sequence (P34969 whole entry): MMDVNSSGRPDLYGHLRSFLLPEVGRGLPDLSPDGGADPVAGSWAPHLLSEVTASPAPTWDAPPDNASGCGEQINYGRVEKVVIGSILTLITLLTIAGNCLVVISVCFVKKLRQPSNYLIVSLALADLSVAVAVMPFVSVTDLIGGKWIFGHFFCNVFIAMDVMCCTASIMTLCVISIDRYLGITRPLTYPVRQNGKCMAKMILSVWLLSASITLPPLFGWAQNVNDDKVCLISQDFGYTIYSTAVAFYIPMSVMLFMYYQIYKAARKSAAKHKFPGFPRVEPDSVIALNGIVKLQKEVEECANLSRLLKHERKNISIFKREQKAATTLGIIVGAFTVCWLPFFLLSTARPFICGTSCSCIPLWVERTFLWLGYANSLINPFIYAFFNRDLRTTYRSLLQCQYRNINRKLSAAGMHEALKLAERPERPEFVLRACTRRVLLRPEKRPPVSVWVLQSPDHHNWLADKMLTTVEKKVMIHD
Sequence of 5HT7 receptor (P34969 whole entry): as above

## CNCCc1cccc(-c2c(Cl)cccc2OC)c1 [Example 39, [2-(6′-Chloro-2′-methoxy-biphenyl-3-yl)-ethyl]-methyl-amine]
[1]
  IC50: 8.8 nM

## COc1ccccc1-c1cccc(CCN(C)C)c1 [Example 21, [2-(2′-Methoxy-biphenyl-3-yl)-ethyl]-dimethyl-amine]
[1]
  IC50: 19.9 ± 1.7 nM

## Cc1cccc(C)c1-c1cccc(CCN(C)C)c1 [Example 9, [2-(2′,6′-Dimethyl-biphenyl-3-yl)-ethyl]-dimethyl-amine]
[1]
  IC50: 10.1 ± 0.8 nM

## Cc1nn(C)c(C)c1-c1cccc(CCN(C)C)c1 [Example 1, Dimethyl-{2-[3-(1,3,5-trimethyl-1H-pyrazol-4-yl)-phenyl]-ethyl}-amine]
[1]
  IC50: 6.1 ± 0.7 nM
5HT7 receptor
  EC50: 25.5 ± 2 nM
  Emax: 94%
5-HT1
  IC50: > 1000 nM

## CCCN(CCC)CCc1cccc(-c2c(C)noc2C)c1 [Example 28, {2-[3-(3,5-Dimethyl-isoxazol-4-yl)-phenyl]-ethyl}-dipropyl-amine]
[1]; [2]
  IC50: 602 nM

## Cc1noc(C)c1-c1cccc(CCN(C)C)c1 [Example 25, {2-[3-(3,5-Dimethyl-isoxazol-4-yl)-phenyl]-ethyl}-dimethyl-amine]
[1]; [2]
  IC50: 802 ± 159 nM

## Cc1nn(C)c(C)c1-c1cccc(CCN)c1 [Example 29, 2-[3-(1,3,5-Trimethyl-1H-pyrazol-4-yl)-phenyl]-ethylamine]
[1]
  IC50: 4.5 ± 1.5 nM

## CCN(CC)CCc1cccc(-c2c(C)nn(C)c2C)c1 [Example 3, Diethyl-{2-[3-(1,3,5-trimethyl-1H-pyrazol-4-yl)-phenyl]-ethyl}-amine]
[1]
  IC50: 76.2 nM

## CCN(CC)CCc1cccc(-c2ccccc2OC)c1 [Example 23, Diethyl-[2-(2′-methoxy-biphenyl-3-yl)-ethyl]-amine]
[1]; [2]
  IC50: 155 nM

## CCN(CC)CCc1cccc(-c2cnn(C)c2)c1 [Example 19, Diethyl-{2-[3-(1-methyl-1H-pyrazol-4-yl)-phenyl]-ethyl}-amine]
[1]; [2]
  IC50: 753 nM

## COc1cccc(Cl)c1-c1cccc(CCN(C)C)c1 [Example 38, [2-(6′-Chloro-2′-methoxy-biphenyl-3-yl)-ethyl]-dimethyl-amine]
[1]
  IC50: 24 ± 2.3 nM

## CCCN(CCC)CCc1cccc(-c2c(C)nn(C)c2C)c1 [Example 4, Dipropyl-{2-[3-(1,3,5-trimethyl-1H-pyrazol-4-yl)-phenyl]-ethyl}-amine]
[1]
  IC50: 56.9 ± 17.9 nM

## Cc1n[nH]c(C)c1-c1cccc(CCN(C)C)c1 [Example 5, {2-[3-(3,5-Dimethyl-1H-pyrazol-4-yl)-phenyl]-ethyl}-dimethyl-amine]
[1]; [2]
  IC50: 129 ± 16.8 nM

## CCN(CC)CCc1cccc(-c2c(OC)cccc2OC)c1 [Example 15, [2-(2′,6′-Dimethoxy-biphenyl-3-yl)-ethyl]-diethyl-amine]
[1]; [2]
  IC50: 302 nM

## CN(C)CCc1cccc(-c2c(Cl)cccc2Cl)c1 [Example 34]
[1]
  IC50: 5 ± 1.7 nM

## COc1cccc(OC)c1-c1cccc(CCN)c1 [Example 33, 2-(2′6′-Dimethoxy-biphenyl-3-yl)-ethylamine]
[1]
  IC50: 122 nM

## CCCN(CCC)CCc1cccc(-c2c(OC)cccc2OC)c1 [Example 16, [2-(2′,6′-Dimethoxy-biphenyl-3-yl)-ethyl]-dipropyl-amine]
[1]; [2]
  IC50: 118 ± 45.9 nM

## CNCCc1cccc(-c2cccnc2OC)c1 [Example 37, {2-[3-(2-Methoxy-pyridin-3-yl)-phenyl]-ethyl}-methyl-amine]
[1]
  IC50: 157 nM

## CCCN(CCC)CCc1cccc(-c2ccccc2OC)c1 [Example 24, [2-(2′-Methoxy-biphenyl-3-yl)-ethyl]-dipropyl-amine]
[1]
  IC50: 84.9 nM

## CN(C)CCc1cccc(-c2c(F)cccc2F)c1 [Example 35, [2-(2′,6′-Difluoro-biphenyl-3-yl)-ethyl]-dimethyl-amine]
[1]
  IC50: 20.8 nM

## COc1cccc(OC)c1-c1cccc(CCN(C)C)c1 [Example 13, [2-(2′,6′-Dimethoxy-biphenyl-3-yl)-ethyl]-dimethyl-amine]
[1]
  IC50: 19.7 ± 1.5 nM

## COc1ncccc1-c1cccc(CCN(C)C)c1 [Example 36, {2-[3-(2-Methoxy-pyridin-3-yl)-phenyl]-ethyl}-dimethyl-amine]
[1]
  IC50: 303 nM

## Cc1nn(C)c(C)c1-c1cccc(CCN2CCCC2)c1 [Example 42, 1,3,5-Trimethyl-4-[3-(2-pyrrolidin-1-yl-ethyl)-phenyl]-1H-pyrazole]
[1]; [2]
  IC50: 139 ± 0.7 nM

## CCN(CC)CCc1cccc(-c2c(C)cccc2C)c1 [Example 11, [2-(2′,6′-Dimethyl-biphenyl-3-yl)-ethyl]-diethyl-amine]
[1]
  IC50: 43.5 ± 15.9 nM

## CCCN(CCC)CCc1cccc(-c2c(C)cccc2C)c1 [Example 12, [2-(2′,6′-Dimethyl-biphenyl-3-yl)-ethyl]-dipropyl-amine]
[1]
  IC50: 42.6 ± 21.1 nM

From US20100152252A1, “Heterocyclyl-substituted-ethylamino-phenyl derivatives, their preparation and use as medicaments” (LABORATORIOS DEL DR. ESTEVE,S.A., priority 2006, published 2010)
